Data from publication PMC10618744 (Cancer Discovery, 2023).

Target: PRMT5 (protein arginine methyltransferase 5) (Homo sapiens, UniProt O14744)
Assay type: biochemical

Sequence of PRMT5 (protein arginine methyltransferase 5) (O14744 2-637): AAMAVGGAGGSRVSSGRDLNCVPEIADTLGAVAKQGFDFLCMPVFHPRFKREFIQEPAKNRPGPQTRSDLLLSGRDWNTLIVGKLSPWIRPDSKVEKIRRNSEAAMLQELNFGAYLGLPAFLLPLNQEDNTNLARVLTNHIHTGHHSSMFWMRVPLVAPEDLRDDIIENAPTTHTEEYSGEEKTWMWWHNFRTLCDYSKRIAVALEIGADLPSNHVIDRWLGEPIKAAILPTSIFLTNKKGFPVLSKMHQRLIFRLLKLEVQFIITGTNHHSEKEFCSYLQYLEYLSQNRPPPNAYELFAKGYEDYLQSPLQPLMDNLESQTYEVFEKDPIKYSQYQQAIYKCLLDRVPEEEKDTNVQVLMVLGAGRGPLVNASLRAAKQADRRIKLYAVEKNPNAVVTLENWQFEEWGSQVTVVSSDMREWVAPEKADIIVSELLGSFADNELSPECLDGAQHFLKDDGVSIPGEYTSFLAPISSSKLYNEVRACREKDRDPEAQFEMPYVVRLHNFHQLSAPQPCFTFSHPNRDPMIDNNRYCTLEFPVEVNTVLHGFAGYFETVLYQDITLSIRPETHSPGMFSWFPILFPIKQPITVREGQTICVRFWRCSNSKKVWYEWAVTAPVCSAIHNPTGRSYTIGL
Sequence of PRMT5 (protein arginine methyltransferase 5) (Q9BQA1 2-342 partner): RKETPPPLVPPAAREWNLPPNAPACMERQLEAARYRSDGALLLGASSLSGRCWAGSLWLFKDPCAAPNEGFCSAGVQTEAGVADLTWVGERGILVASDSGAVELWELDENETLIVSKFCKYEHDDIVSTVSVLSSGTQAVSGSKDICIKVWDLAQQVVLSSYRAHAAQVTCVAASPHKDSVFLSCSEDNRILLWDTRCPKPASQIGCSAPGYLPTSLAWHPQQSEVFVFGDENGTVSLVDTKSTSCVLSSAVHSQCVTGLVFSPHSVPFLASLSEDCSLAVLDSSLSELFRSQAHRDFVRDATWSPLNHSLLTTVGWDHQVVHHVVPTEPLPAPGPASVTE

In the case of `CSC[C@H]1O[C@@H](n2cnc3c(N)ncnc32)[C@H](O)[C@@H]1O` [MTA], the IC50 is reported as ~2 µM.
